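Cultured in 96-well plates, cells were exposed to test compound for 48 hours across five concentrations. GI50 marks 50% less growth. The concentration for full growth arrest is given as TGI.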
Experiments:
Assay in all cases: NCI anticancer screen, dose series, 48 h
[1] = tested on: 786-0 renal
[2] = tested on: COLO 205 colon
[3] = tested on: HCT-116 colon
[4] = tested on: HS 578T breast
[5] = tested on: LOX IMVI melanoma
[6] = tested on: M14 melanoma
[7] = tested on: NCI-H460 lung
[8] = tested on: SK-MEL-2 melanoma
[9] = tested on: SK-MEL-28 melanoma
[10] = tested on: HOP-92 NSCLC

SMILES	GI50 [1]	TGI [1]	GI50 [2]	TGI [2]	GI50 [3]	TGI [3]	GI50 [4]	TGI [4]	GI50 [5]	TGI [5]	GI50 [6]	TGI [6]	GI50 [7]	TGI [7]	TGI [8]	GI50 [9]	TGI [9]	TGI [10]	GI50 [10]	GI50 [8]
COC(=O)c1c(-c2ccccc2)csc1NC(=O)c1c(-c2ccccc2)noc1C	1.34 µM	> 100 µM	1.21 µM	> 100 µM	0.379 µM	> 100 µM	> 100 µM	> 100 µM	0.24 µM	3.56 µM	6.86 µM	> 100 µM	0.177 µM	> 100 µM	> 100 µM	1.56 µM	> 100 µM	–	–	–
COc1ccccc1NC(=O)C1=C(C)NC(C)=C(C(=O)Nc2ccccc2OC)C1c1ccc(C(C)C)cc1	–	> 100 µM	–	> 100 µM	–	> 100 µM	–	–	–	> 100 µM	–	> 100 µM	–	> 100 µM	> 100 µM	–	> 100 µM	> 100 µM	–	–
CC(C)(C)c1cc(C(O)(C(F)(F)F)C(F)(F)F)c2c(c1)C(C(F)(F)F)(C(F)(F)F)OC(c1ccccc1)(C(C)(C)C)N2 (centres undefined)	–	> 100 µM	–	16.1 µM	–	13.2 µM	–	–	–	–	–	12.3 µM	–	11.7 µM	19.7 µM	–	22.1 µM	–	–	–
COc1nc2c(nc(N)n2C2OC(CO)C(O)C(O)C2O)c(=O)n1C (centres undefined)	–	> 100 µM	–	> 100 µM	–	> 100 µM	–	–	–	> 100 µM	–	> 100 µM	–	> 100 µM	–	–	> 100 µM	> 100 µM	–	–
CC(=O)OCCOCNC(=S)N/N=C(\C)c1ccco1	–	> 100 µM	–	> 100 µM	–	> 100 µM	–	–	–	> 100 µM	–	> 100 µM	–	> 100 µM	> 100 µM	–	> 100 µM	–	–	–
O=S1(=O)CSc2ccc3ccccc3c2-c2c1ccc1ccccc21	–	> 100 µM	–	> 100 µM	–	> 100 µM	–	–	–	> 100 µM	–	> 100 µM	–	> 100 µM	–	–	> 100 µM	> 100 µM	–	–
CC(=O)O[C@H]1CC[C@@]2(C)C(=CC[C@@H]3C2CC[C@]2(C)Nc4oncc4CC32)C1 (some centres undefined)	–	> 100 µM	–	–	–	30.4 µM	–	–	–	–	–	> 100 µM	–	48.8 µM	> 100 µM	–	> 100 µM	–	–	–
COC(=O)/C(C#N)=C1\N=NNN1CCCc1ccccc1	–	> 100 µM	–	> 100 µM	–	> 100 µM	–	–	–	> 100 µM	–	> 100 µM	–	> 100 µM	–	–	> 100 µM	> 100 µM	–	–
CCN(CCCl)CCNc1c2ccccc2nc2ccc(OC)cc12	–	1.84 µM	–	1.82 µM	–	2.1 µM	–	–	–	2.14 µM	–	2.45 µM	–	2.2 µM	2.52 µM	–	3.67 µM	2.43 µM	–	–
Cc1cc(Cl)ccc1N1C(=O)C(=O)C(c2nc3ccccc3s2)C(=O)C1=O	–	> 100 µM	–	> 100 µM	–	> 100 µM	–	–	–	–	–	> 100 µM	–	> 100 µM	> 100 µM	–	> 100 µM	> 100 µM	–	–
CCOc1ccc(NC(=O)C2=C(C)NC(C)=C(C(=O)Nc3ccc(OCC)cc3)C2c2ccc([N+](=O)[O-])cc2)cc1	–	> 100 µM	–	53.3 µM	–	–	–	–	–	> 100 µM	–	> 100 µM	–	> 100 µM	45.7 µM	–	> 100 µM	58.6 µM	–	–
C/C=C/C1(NS(=O)(=O)c2ccc(C)cc2)CCC(C(C)(C)C)CC1 (centres undefined)	–	43.8 µM	–	42.3 µM	–	36 µM	–	–	–	–	–	35.1 µM	–	51.5 µM	34.8 µM	–	–	41.6 µM	–	–
Cc1cccc(C)c1NC(=O)C(=O)C1C(=O)N(c2ccccc2)N=C1N (centres undefined)	–	> 100 µM	–	> 100 µM	–	> 100 µM	–	–	–	> 100 µM	–	> 100 µM	–	> 100 µM	> 100 µM	–	> 100 µM	> 100 µM	–	–
CCC(=O)O[C@@H]1C2C(OC(C)=O)C34COC(C)([C@@H]3C3C(C[C@]3(C)OC(C)=O)[C@@H](OC(=O)c3ccccc3)C4=O)[C@H](OC(C)=O)[C@@]2(OC(C)=O)C[C@@H]1C (some centres undefined)	–	29.2 µM	–	> 100 µM	–	> 100 µM	–	–	–	> 100 µM	–	> 100 µM	–	> 100 µM	> 100 µM	–	> 100 µM	40.8 µM	–	–
C=C1C(=O)O[C@H]2[C@H]1CC/C(Cn1cc(CCC)nn1)=C\CC[C@@]1(C)O[C@@H]21	11.3 µM	25.5 µM	5.22 µM	17.1 µM	3.98 µM	14.4 µM	23.4 µM	69.6 µM	3.9 µM	16.9 µM	3.99 µM	17.9 µM	21.2 µM	41.5 µM	34.5 µM	–	–	7.13 µM	2.95 µM	16.3 µM
C[Si](C)(C)/C(Br)=C\CCN1C(=O)CCC1O (centres undefined)	–	> 100 µM	–	> 100 µM	–	> 100 µM	–	–	–	> 100 µM	–	> 100 µM	–	> 100 µM	> 100 µM	–	> 100 µM	> 100 µM	–	–
CC(C)(C)c1ccccc1NS(=O)(=O)c1ccccc1	–	> 100 µM	–	–	–	> 100 µM	–	–	–	–	–	> 100 µM	–	> 100 µM	> 100 µM	–	> 100 µM	–	–	–
Cc1nc2cc(O)c(O)cc2cc1Oc1ccc(NC(=O)Nc2ccc(Cl)c(Cl)c2)cc1	7.68 µM	18.6 µM	10.3 µM	> 32.5 µM	2.24 µM	13.6 µM	12.8 µM	> 32.5 µM	–	–	5.97 µM	13.8 µM	6.95 µM	15.8 µM	21.1 µM	9 µM	30.1 µM	16.7 µM	2.85 µM	8.83 µM
C[C@H](NC(=O)OC1C2C=CC(O)C1CC2)c1ccccc1 (some centres undefined)	–	> 100 µM	–	> 100 µM	–	> 100 µM	–	–	–	> 100 µM	–	> 100 µM	–	> 100 µM	> 100 µM	–	> 100 µM	–	–	–
N#CC(C#N)=C1NC(=O)C(c2ccccc2)C(=O)N1 (centres undefined)	–	> 100 µM	–	> 100 µM	–	> 100 µM	–	–	–	> 100 µM	–	> 100 µM	–	> 100 µM	–	–	–	> 100 µM	–	–
CCCCCCCCCCCCC(Br)C(=O)SCCNC(=O)CCNC(=O)[C@@H](O)C(C)(C)COP(=O)(O)OP(=O)(O)OCC1OC(n2cnc3c(N)ncnc32)C(O)C1OP(=O)(O)O (some centres undefined)	–	> 56.5 µM	–	> 56.5 µM	–	> 56.5 µM	–	–	–	> 56.5 µM	–	> 56.5 µM	–	> 56.5 µM	> 56.5 µM	–	> 56.5 µM	> 56.5 µM	–	–
COc1ccc(C2CC(c3cc(OC)c(OC)c(OC)c3)=NN2)cc1 (centres undefined)	20.7 µM	> 100 µM	4 µM	31 µM	3.93 µM	> 100 µM	14.4 µM	98.3 µM	5.52 µM	> 100 µM	13.3 µM	> 100 µM	3.47 µM	30.1 µM	–	38.7 µM	> 100 µM	> 100 µM	20.1 µM	–
